Drawing on PubChem BioAssay (NCI), this text covers GI50 and TGI for 17 molecules.

Where “and” joins values, the source holds several entries; their conditions need not be identical. Equal entries are not always repeated.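 Compound exposure: 48 hours, 5 concentrations, 96-well plates. GI50 is the concentration that inhibits growth by half. At the TGI there is no net growth.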 A value given as a limit tells only on which side of the number the result lay.

What all share (test): inhibition of tumour cell growth, NCI panel, 48 h
Assay [1] relates to HCT-15 colon.
Assay [2] concerns K-562 leukemia.
For assay [3], the system named is MDA-MB-231 breast.
The test system of assay [4] is MDA-MB-435.
In assay [5] the test system is OVCAR-3 ovarian.
Assay [6] concerns SK-MEL-5 melanoma.
In assay [7] the test system is SK-OV-3 ovarian.
Assay [8] relates to SR leukemia.
The test system of assay [9] is UO-31 renal.
In assay [10] the test system is TK-10 renal.

Turning to `Cc1cc2nc3ccc(N=Nc4ccc(N(C)C)cc4)cc3n(-c3ccccc3)c-2cc1=N`, the GI50 is 0.0273 µM and 0.177 µM in assay [1]; 0.00686 µM in [2]; 0.074 µM in assay [3]; 0.0402 µM in assay [4]; 0.0121 µM in [5]; 0.0235 µM in assay [6]. The GI50 in [7] is 0.0305 µM; in [8], 0.0208 µM; in assay [9], 0.0333 µM. Also, the TGI in assay [1] was 0.259 µM and 1.31 µM; in assay [3], 0.466 µM; in assay [4] it was 0.165 µM; in [5] it was 0.039 µM; in [6], 0.143 µM; in assay [7], 0.187 µM. Moreover, the TGI in assay [8] worked out at 0.394 µM; in [9] it was 0.82 µM.
On to `CCOC(=O)Nc1nc2c(F)c(F)c(F)cc2s1`, for which the GI50 was over 100 µM in assay [1]; over 100 µM in assay [2]; 36.2 µM in assay [3]; over 100 µM in assay [4]; 75.1 µM in assay [5]; over 100 µM in assay [6]. Further, the GI50 is 45.2 µM in [7], over 100 µM in [8], over 100 µM in [10] and over 100 µM in assay [9]. Further, the TGI in assay [1], in [2], in assay [3], in assay [4], in assay [5] and in [6] was over 100 µM in each case. Moreover, the TGI in [7], in assay [8], in assay [10] and in [9] was over 100 µM throughout.
`COC(=O)c1[nH]nc(-c2ccccc2)c1N1CCCCC1`: the GI50 in assay [1] was 36.2 µM; in assay [2], 57.2 µM; in assay [3] it was 31.2 µM; in assay [4], 64.7 µM; in assay [5], 40.7 µM; in assay [6], 34 µM. Besides, the GI50 was 36.4 µM in assay [7], 46.5 µM in assay [8], 32.5 µM in assay [10] and 65.4 µM in assay [9]. Also, the TGI in [1] was over 100 µM; in assay [2] it was over 100 µM; in assay [3], 65.9 µM; in assay [4], over 100 µM; in [5] it was over 100 µM; in assay [6] it was over 100 µM. The TGI was over 100 µM in [7], over 100 µM in [8], 68.2 µM in assay [10] and over 100 µM in [9].
In the case of `Cn1c2ccccc2c2cc(-c3ccccc3)c3c(c21)C(=O)C=CC3=O`, the TGI in assay [1] was 42.1 µM; in assay [2], over 70.6 µM; in [3] it was 47.4 µM; in [4], 51.7 µM; in assay [5], 31.7 µM; in [6] it was over 62.7 µM. The TGI is over 100 µM in assay [7], 17.5 µM in assay [8], 32 µM in [10] and 42.9 µM in assay [9].
`COc1cc(/C=C/C(=O)c2c(C)n([O-])c3cc(C)c(C)cc3[n+]2=O)cc(OC)c1OC`: the GI50 in [1] was 10.3 µM; in assay [2], 18.7 µM; in assay [3], 17 µM; in assay [4], 20.4 µM; in assay [5], 16.8 µM; in assay [6] it was 13.9 µM. For the same molecule, the GI50 is 32.4 µM in assay [7], 13.4 µM in assay [8], 14.8 µM in assay [10] and 15.4 µM in assay [9]. Besides, the TGI in [1] is 25.6 µM; in [2], over 100 µM; in assay [3], 44.7 µM; in assay [4] it was over 100 µM; in assay [5] it was 41.6 µM; in [6] it was 34 µM. Besides, the TGI in assay [7] was 91.9 µM; in assay [8], over 100 µM; in [10], 31.2 µM; in assay [9], 32.3 µM.
`Cc1ccc(C(=O)Nc2ccc(CN3CCN(C)CC3)c(C(F)(F)F)c2)cc1C#Cc1cncc2ncccc12`: the GI50 is 0.318 µM in assay [1]; 0.177 µM in [3]; 0.286 µM in assay [4]; 0.558 µM in assay [5]; 2.63 µM in assay [6]; 0.553 µM in assay [7]. The GI50 in [8] was 0.63 µM; in assay [10] it was 0.253 µM; in [9], 0.191 µM. In addition, the TGI in assay [1] worked out at 1.28 µM; in assay [2], 1.67 µM; in assay [3], 1.1 µM; in assay [4], 1.56 µM; in assay [5], 14.7 µM; in [6] it was 8.14 µM. Moreover, the TGI in assay [7] was determined as 6.63 µM; in [8], 7.78 µM; in assay [10], 1.41 µM; in assay [9], 0.903 µM.
With `COc1ccc(-c2nnc3n(C)c(=O)c4ccccc4n23)cc1O`, the GI50 is 0.153 µM in assay [1]; 0.135 µM in [2]; 2.29 µM in assay [3]; 0.065 µM in [4]; 0.162 µM in assay [5]; 0.15 µM in [6]. Also, the GI50 in assay [7] is 1.12 µM; in [8] it was 0.1 µM; in assay [10], 6.8 µM; in assay [9], 2.13 µM. Also, the TGI is over 100 µM in [1]; over 100 µM in assay [2]; 31.7 µM in [3]; 0.221 µM in assay [4]; 12.7 µM in assay [5]; over 100 µM in [6]. Further, the TGI is 32.9 µM in [7], over 100 µM in assay [8], over 100 µM in assay [10] and over 100 µM in [9].
On to `COc1ccc2nc(-c3ccccc3)cc(Nc3ccc(/C(C)=N/O)cc3)c2c1`, for which the GI50 is 13.9 µM in [1]; 2.2 µM in assay [2]; 0.733 µM in [3]; 3.4 µM in assay [4]; 2.87 µM in [5]; 2.62 µM in assay [6]. Also, the GI50 was 2.15 µM in assay [7], 3.82 µM in [8], 1.63 µM in assay [10] and 41.3 µM in assay [9]. The TGI in assay [1] is over 63.9 µM; in assay [2], over 100 µM; in [3], 2.07 µM; in [5], over 100 µM; in [6], 7.57 µM; in [7], 5.22 µM. Moreover, the TGI in [8] was over 100 µM; in assay [10] it was 3.42 µM; in assay [9] it was over 100 µM.
For the molecule `O=C(Cc1ccc(/C=C/C(=O)c2ncc[nH]2)cc1)Nc1ccc(Br)cc1`, the GI50 in assay [1] was 0.787 µM; in [2], 0.745 µM; in assay [3] it was 3.97 µM; in [4], 3.7 µM; in assay [5], 0.85 µM; in assay [6] it was 5.77 µM. Moreover, the GI50 is 8.2 µM in [7], 0.608 µM in assay [8], 4.31 µM in assay [10] and 1.79 µM in assay [9]. In addition, the TGI in assay [1] was 8.83 µM; in assay [2], over 16.7 µM; in [3], 13.4 µM; in assay [4], 15.6 µM; in [5], 3.88 µM; in assay [6], over 16.7 µM. In addition, the TGI was over 16.7 µM in [7], 12.9 µM in assay [8], 12.6 µM in [10] and 3.86 µM in assay [9].
As to `CC12C=CC(C)(O1)C1C2c2ccccc2S1(=O)=O` (configuration not stated), the GI50 in assay [1] was 38.4 µM; in assay [2], 69.7 µM; in assay [3] it was 69.9 µM; in [4] it was 52.1 µM; in assay [5] it was 52.7 µM; in [6], 38.7 µM. The GI50 was over 100 µM in [7], 15.6 µM in [8], over 100 µM in [10] and over 100 µM in assay [9]. For the same molecule, the TGI in assay [1], in assay [2], in [3], in assay [4], in assay [5] and in assay [6] was over 100 µM throughout. In addition, the TGI in assay [7], in assay [8], in assay [10] and in [9] was over 100 µM in each case.
As to `NC(=O)Nc1ccc2ncnc(Nc3ccc(Cl)cc3)c2c1`, the GI50 is 20.1 µM in assay [1]; 28.9 µM in assay [2]; 13.7 µM in [3]; 17.8 µM in assay [4]; 10.4 µM in [5]; 13.6 µM in assay [6]. Further, the GI50 in [7] was 4.5 µM; in [8], 21.3 µM; in assay [10], 1.72 µM; in assay [9] it was 6.96 µM. Besides, the TGI in assay [1] was over 100 µM; in [2], over 100 µM; in assay [3] it was over 61.4 µM; in assay [4], 44.6 µM; in assay [5], over 83.4 µM; in [6], 30.8 µM. The TGI in assay [7] is 34.1 µM; in [8], 75.8 µM; in assay [10], 23.4 µM; in [9] it was over 65.6 µM.
For the molecule `N#Cc1cc2cc3c4c(c2oc1=O)CCCN4CCC3`, the TGI in assay [1], in assay [2], in [3], in assay [4], in assay [5] and in assay [6] was over 100 µM throughout. In addition, the TGI in assay [7], in assay [8], in assay [10] and in [9] was over 100 µM each time.
As to `BrP(NC1CCCCCC1)(c1ccccc1)(c1ccccc1)c1ccccc1`, the TGI in [1] is 46.3 µM; in [2] it was over 100 µM; in assay [3], 16 µM; in assay [4], 7.63 µM; in [5] it was 9.94 µM; in [6], 3.18 µM. The TGI was over 100 µM in [8], 21.3 µM in assay [10] and 17.4 µM in [9].
For the molecule `COC(=O)Nc1nc2c(OC)c(OC)c(OC)cc2[nH]1`, the GI50 in assay [1] was 5.71 µM; in assay [2], 5.43 µM; in assay [3] it was 18.7 µM; in assay [4], 2.09 µM; in assay [5], 15.6 µM; in assay [6], 9.34 µM. The GI50 was 30.8 µM in [7], 3.39 µM in assay [8], 66.6 µM in [10] and 36.4 µM in assay [9]. Further, the TGI was over 100 µM in assay [1]; over 100 µM in assay [2]; over 100 µM in assay [3]; 5.71 µM in assay [4]; 49.1 µM in assay [5]; over 100 µM in assay [6]. Moreover, the TGI was over 100 µM in assay [7], over 75.7 µM in [8], over 100 µM in assay [10] and over 100 µM in assay [9].
`O=C(Cc1ccccc1)Nc1nnc(CCSCCc2nnc(NC(=O)Cc3ccccc3)s2)s1`: the GI50 in [1] was over 100 µM; in assay [2], 1.34 µM; in assay [3], 6.51 µM; in assay [4] it was 58.2 µM; in assay [5], 6.16 µM; in assay [6] it was 58 µM. Moreover, the GI50 in [7] is 18.7 µM; in assay [8], 13.9 µM; in assay [10] it was 35.6 µM; in [9] it was 81.8 µM. The TGI in assay [1] is over 100 µM; in [2], over 100 µM; in assay [3], 25.7 µM; in assay [4], over 100 µM; in assay [5] it was 49.2 µM; in assay [6] it was over 100 µM. Also, the TGI in [7] was 71.3 µM; in assay [8] it was 32.6 µM; in assay [10], over 100 µM; in assay [9], over 100 µM.
Regarding `N/C(=N\OC(=O)NC(Cl)=C(Cl)Cl)c1cc(C(F)(F)F)cc(C(F)(F)F)c1`, the TGI amounted to 48.4 µM in assay [1]; 34.2 µM in [3]; 48.5 µM in assay [4]; 28.6 µM in assay [5]; 89.6 µM in assay [6]; 84.4 µM in assay [7]. Also, the TGI in [8] worked out at 26.2 µM; in assay [10] it was 30.4 µM; in assay [9], 33.9 µM.
With `O=C(CCCn1ccnc1[N+](=O)[O-])NCCn1cnc([N+](=O)[O-])c1`, the TGI in [1], in [2], in [4], in [5], in assay [6] and in [7] was over 100 µM each time. Also, the TGI in [8], in assay [10] and in assay [9] was over 100 µM throughout.
